Laboratory results published in the NIST ThermoML archive (doi:10.1016/j.fluid.2007.07.039).

Test: xn = mol fraction of the nth substance listed
Conditions: Liquid, Taylor dispersion method, x1 = 0

Row | SMILES | binary diffusion coefficient (313.16 K, 15000 kPa) | binary diffusion coefficient (313.16 K, 20000 kPa) | binary diffusion coefficient (313.16 K, 25000 kPa) | binary diffusion coefficient (313.16 K, 30000 kPa) | binary diffusion coefficient (313.16 K, 35000 kPa) | binary diffusion coefficient (323.16 K, 15000 kPa) | binary diffusion coefficient (323.16 K, 20000 kPa) | binary diffusion coefficient (323.16 K, 25000 kPa) | binary diffusion coefficient (323.16 K, 30000 kPa) | binary diffusion coefficient (323.16 K, 35000 kPa) | binary diffusion coefficient (333.16 K, 15000 kPa) | binary diffusion coefficient (333.16 K, 20000 kPa) | binary diffusion coefficient (333.16 K, 25000 kPa) | binary diffusion coefficient (333.16 K, 30000 kPa) | binary diffusion coefficient (333.16 K, 35000 kPa)
1 | C=Cc1cccc(C=C)c1 [1,3-diethenylbenzene] + O=C=O | 1.03e-08 m2/s | 9.44e-09 m2/s | 8.69e-09 m2/s | 8.07e-09 m2/s | 7.69e-09 m2/s | 1.28e-08 m2/s | 1.06e-08 m2/s | 9.71e-09 m2/s | 8.94e-09 m2/s | 8.54e-09 m2/s | 1.51e-08 m2/s | 1.21e-08 m2/s | 1.11e-08 m2/s | 9.95e-09 m2/s | 9.47e-09 m2/s
2 | COc1ccccc1Br [1-bromo-2-methoxybenzene] + O=C=O | 9.46e-09 m2/s | 8.66e-09 m2/s | 7.92e-09 m2/s | 7.48e-09 m2/s | 7.15e-09 m2/s | 1.15e-08 m2/s | 1.01e-08 m2/s | 9.08e-09 m2/s | 8.52e-09 m2/s | 7.98e-09 m2/s | 1.28e-08 m2/s | 1.19e-08 m2/s | 1.06e-08 m2/s | 9.45e-09 m2/s | 8.98e-09 m2/s
3 | COc1ccccc1F [2-fluoroanisole] + O=C=O | 1.02e-08 m2/s | 9.27e-09 m2/s | 8.69e-09 m2/s | 8.01e-09 m2/s | 7.68e-09 m2/s | 1.25e-08 m2/s | 1.05e-08 m2/s | 9.89e-09 m2/s | 9.14e-09 m2/s | 8.65e-09 m2/s | 1.43e-08 m2/s | 1.23e-08 m2/s | 1.1e-08 m2/s | 1.03e-08 m2/s | 9.67e-09 m2/s
4 | C=CCc1ccccc1 [2-propenylbenzene] + O=C=O | 1.03e-08 m2/s | 9.11e-09 m2/s | 8.93e-09 m2/s | 8.29e-09 m2/s | 7.67e-09 m2/s | 1.23e-08 m2/s | 1.12e-08 m2/s | 1e-08 m2/s | 9.35e-09 m2/s | 9.01e-09 m2/s | 1.41e-08 m2/s | 1.22e-08 m2/s | 1.15e-08 m2/s | 1.05e-08 m2/s | 9.87e-09 m2/s
